Structures are written as SMILES. Marks after values point to notes of the source that are not given here.

Experiment [1] in a line: Biochemical analysis of blood (plasma lipids, glucose, ALT, AST) in mice fed test diets. The format is in vivo, C57BL/6J mice. Particulars: 10 weeks. From the text:
(§1) The obesity-inducing control diet used in the test was high-fat diet (HFD: 40% fat calorie, 17 g lard+3% corn oil/100 g diet). […] The normal diet group (Chow) was fed with commercially available rodent chow.
(§2) 5-week-old male C57BL/6J mice (Orient, Korea) were accustomed to the laboratory environment for 1 week while feeding solid feed. Then, they were randomly divided into normal diet, high-fat diet and test groups and bred for a total of 10 weeks. The diet was given between 10 and 11 a.m. every day together with water. Food intake was measured every day and body weight was measured once a week. In order to avoid transient body weight increase after feed intake, body weight was measured 2 hours after removing the feed. After fasting the test animal for at least 12 hours and anesthetizing with diethyl ether, blood, liver and visceral fat (epididymal fat, perirenal fat, mesenteric fat and retroperitoneal fat) were taken and weighed after washing with 0.1 M PBS (pH 7.4). Blood taken from the abdominal aorta was centrifuged at 1000×g for 15 minutes for the separation of plasma.
After 10 weeks of breeding, total cholesterol, triglyceride and glucose levels in the plasma and lipid levels in the liver tissue were measured as follows. Total cholesterol, triglyceride, free fatty acid and glucose levels in the plasma were measured twice for each using a commercially available kit (Bio Clinical System). The activity of ALT (alanine aminotransferase) and AST (aspartate aminotransferase) used as liver function indicator were measured twice for each using a commercially available kit (Bio Clinical System, Korea).

Experiment [2] can be described thus: Body weight gain, food intake and visceral fat-pad weights in mice fed high-fat diet supplemented with adipic acid. The format is in vivo, C57BL/6J mice. The following applies: 0.2% adipic acid in high-fat diet, 10 weeks.
From the text: as §1, §2

The next experiment has as its system TNF-α gene expression. In words: RT-PCR analysis of visceral fat tissues. The format is in vivo, C57BL/6J mice. Particulars: mRNA. Here is the method: (§3) After adding 1 mL of Trizol agent per 0.1 g of visceral fat tissues, the mixture was homogenized and centrifuged at 12,000×g for 10 min at 4° C. The supernatant was transferred to a new tube and 200 μl of chloroform was added to the tube, followed by vortexing. The same procedure was repeated twice and then the supernatant was transferred to a new tube, followed by addition of isopropanol and the supernatant at 1:1 ratio. The mixture was vigorously shaken 10 times and then incubated for 10 min at room temperature, followed by centrifugation at 12,000×g for 10 min at 4° C. to remove the supernatant. After adding 1 mL of 70% ethanol to the remaining pellet, it was centrifuged at 7,500×g for 5 min at 4° C. After removing the ethanol, the RNA pellet contained in the tube was dried for 5 min at 4° C. and dissolved in nuclease-free water. The RNA sample concentration was measured at a wavelength of 260 nm and 280 nm using a UV/VIS spectrophotometer (Beckman coulter, DU730) and the integrity of RNA sample was verified by agarose gel electrophoresis.
(§4) The RNA sample obtained from the visceral fat tissues was transcribed using oligo dT primer and SuperScript reverse transcriptase (GIBCO BRL, Gaithersburg, Md., USA) to synthesize cDNA. The PCR amplification was performed using the cDNA as templates and primers complementary to cDNA 5′ and 3′ flanking sequence. The amplified products were resolved on agarose gel electrophoresis.

Another experiment concerns C/EBPα gene expression. The experiment is described as follows: RT-PCR analysis of visceral fat tissues. The class given is in vivo, C57BL/6J mice. Particulars: mRNA, versus HFD. Here is the method: as §3, §4
The test system of another experiment is IL-6 gene expression. In words: RT-PCR analysis of visceral fat tissues. The class given is in vivo, C57BL/6J mice. Particulars: mRNA. Here is the method: as §3, §4
The test system of a further experiment is aP2 gene expression. The experiment is described as follows: RT-PCR analysis of visceral fat tissues. The class given is in vivo, C57BL/6J mice. Particulars: mRNA, versus HFD. Here is the method:
as §3, §4

A further experiment relates to PPARγ2 gene expression. In words: RT-PCR analysis of visceral fat tissues. The class given is in vivo, C57BL/6J mice. The following applies: mRNA, versus HFD. On the procedure:
as §3, §4

Experiment [3] is described as follows: Liver weight and lipid level in liver tissues of mice fed test diets. The class given is in vivo, C57BL/6J mice. Particulars: 10 weeks.
From the text: as §1, §2
Lipids were extracted from the liver tissue according to Folch et al.'s method Folch J et al., J Biol Chem. 226: 497-509 (1957)). After adding 1 mL of distilled water to 0.25 g of liver tissue, the liver tissue was homogenized using a Polytron homogenizer (IKA-Werke GmbH & Co., Ultra-Turrax, Staufen, Germany). After adding 5 mL of chloroform:methanol solution (2:1, v/v) to the homogenate and mixing well, the mixture was centrifuged at 1000×g for 10 minutes. After adding 2 mL of chloroform:methanol solution (2:1, v/v) again to the supernatant, the same procedure was repeated to completely separate the lipid components of the liver. After adding 3 mL of chloroform:methanol:0.05% CaCl2 (3:48:47, v/v/v) solution to the remaining pellets and mixing well for 1 minute, followed by centrifugation at 1000×g for 10 minutes, the resulting pellets were completely dried with nitrogen gas. The dried lipids were dissolved in 1 mL of methanol and then analyzed.
The same kit (Bio Clinical System) as that used for the plasma analysis was used to measure the triglyceride and cholesterol levels of the liver tissue.

The conditions of experiment [4]: rat; ketosis caused by long-chain and short-chain monocarboxylic acids; cited from earlier work.
For experiment [5] the following is noted: patients treated for 8 weeks; cited from earlier work.

For the compound `O=C(O)CCCCC(=O)O` [adipic acid], in experiment [1], the “decrease of plasma ALT activity as compared to HFD” value came out at 40%, the “decrease of plasma AST activity as compared to HFD” value is 27%, the “lower plasma free fatty acid level as compared to HFD” value is on record as 32% and the “lower plasma total cholesterol level as compared to HFD” value is 24%. In experiment [1], the “lower plasma triglyceride level as compared to HFD” value came out at 26% and the “reduction of fasting blood sugar level as compared to HFD” value is given as 25%. Further, in experiment [1] (plasma, mean ± SEM), the ALT is 7.9 ± 0.78^c IU/L, the AST is reported as 8.9 ± 0.28^b IU/L, the Free fatty acid is 890 ± 56^c uEq/L and the Total cholesterol is reported as 2.66 ± 0.41^b mmol/L. Moreover, the Triglyceride in [1] (plasma, mean ± SEM) is 0.89 ± 0.05^b mmol/L. The Glucose in [1] (plasma, fasted, mean ± SEM) is listed as 6.6 ± 0.41^b mmol/L. Moreover, in experiment [2], the daily food intake entry is recorded as “no significant change”, the “decrease of body weight gain as compared to HFD” value is listed as 49%, the “epididymal fat-pad weight as compared to HFD” value is “significantly reduced” and the “mesenteric fat-pad weight as compared to HFD” value was “significantly reduced”. Further, in experiment [2], the “perirenal fat-pad weight as compared to HFD” value was “significantly reduced”, the “reduction of total visceral fat weight as compared to HFD” value is 21% and the “retroperitoneal fat-pad weight as compared to HFD” value was “significantly reduced”. In the experiment with TNF-α gene expression, the “HFD-induced elevation in the expression of TNF-α” value is recorded as “significantly reversed”. Also, the “expression of C/EBPα gene” value in the experiment with C/EBPα gene expression was “significantly decreased”. For the same compound, in the experiment on IL-6 gene expression, the “HFD-induced elevation in the expression of IL-6” value was “significantly reversed”. The “expression of aP2 gene” value in the experiment on aP2 gene expression is listed as “significantly decreased”. The “expression of PPARγ2 gene” value in the experiment with PPARγ2 gene expression is “significantly decreased”. Also, in [3], the “decrease of cholesterol level in liver tissue as compared to HFD” value was 44%, the “decrease of free fatty acid level in liver tissue as compared to HFD” value was 37%, the “decrease of triglyceride level in liver tissue as compared to HFD” value is 26% and the “reduction of liver absolute weight as compared to HFD” value was 12%. Also, in experiment [4], the effect on ketosis entry was “effective for improving ketosis”.

In the case of `CCOC(=O)C1=C(COCCN)NC(C)=C(C(=O)OC)C1c1ccccc1Cl.O=C(O)CCCCC(=O)O` (stereo not drawn) [amlodipine adipate], the symptoms of hypertension entry in [5] is “alleviated symptoms of hypertension”.

The values are drawn from US8614250B2 (Industry-Academic Cooperation Foundation, Yonsei University, priority 2011, dated 2013).
